Data as given in patent US7534915B2, “Non-symmetrical gelling agent” (Applied Nanosystems B.V., priority 2003, dated 2009).
Values belong to the compound of their own block, whether it stands above or below them.

Experiment: Gel test (vial inversion)
Type: physicochemical
Protocol: A weighed amount of solid was dissolved in 0.5 or 1 ml of the solvent in a closed 2.0 ml vial using a heating gun or a heating block and subsequently slowly cooled to room temperature by standing in the air. Gelation was determined by turning the vial upside down and gentle shaking. If no flow of the mass was observed, the mass was defined to be a gel. Alternatively, a weighed amount of solid was dissolved in 1 mL of solvent by the addition of acid or base. The subsequent addition of base or acid then gave gelation. Alternatively, a weighed amount of solid was dissolved in a small amount of solvent. The subsequent addition of a large amount of non-solvent then gave gelation. Alternatively, the solution of gelator/thickener was added to the non-solvent, resulting in gelation. Alternatively, a weighed amount of solid was mixed with 1 mL of solvent by sonication. After stopping the sonication, gelation occurred. Alternatively a weighed amount of solid was mixed with 1 mL of solvent by brief vortexing after which gelation occurred. Alternatively a weighed amount of solid was mixed with 1 mL of solvent after which gelation occurred.

[1] = PEG 400 (printed PEG for compound 20)

Structure (SMILES): O=C(NCCOCCO)[C@@H]1C[C@H](C(=O)NCCOCCO)C[C@H](C(=O)N[C@@H](Cc2ccccc2)C(=O)Nc2ccc3ccccc3c2)C1 [Compound 2, CHex(AmPhe-AmβNA)(AmEtOEtOH)2]
Gel test (1 mg/mL in H2O): clear gel

Structure (SMILES): CSCC[C@H](NC(=O)[C@@H]1C[C@H](C(=O)NCCO)C[C@H](C(=O)NCCO)C1)C(=O)Nc1ccc2ccccc2c1 [Compound 5, CHex(AmMet-AmβNA)(AmEtOH)2]
Gel test (2 mg/mL in H2O): clear gel

Structure (SMILES): CSCC[C@H](NC(=O)[C@@H]1C[C@H](C(=O)NCc2ccncc2)C[C@H](C(=O)NCc2ccncc2)C1)C(=O)Nc1ccc2ccccc2c1 [Compound 6, CHex(AmMet-AmβNA)(AmCH2Pyr)2]
Gel test (1 mg/mL in H2O): slightly turbid gel

Structure (SMILES): O=C(O)[C@@H]1C[C@H](C(=O)O)C[C@H](C(=O)N[C@@H](Cc2ccccc2)C(=O)NCc2ccccc2)C1 [Compound 7, CHex(AmPhe-AmBn)(COOH)2]
Gel test (3 mg/mL in H2O): slightly turbid gel

Structure (SMILES): O=C(NCCOCCO)[C@@H]1C[C@H](C(=O)NCCOCCO)C[C@H](C(=O)N[C@@H](Cc2ccccc2)C(=O)NCc2ccccc2)C1 [Compound 8, CHex(AmPhe-AmBn)(AmEtOEtOtH)2]
Gel test (1 mg/mL in H2O): clear gel (thixotropic)
Gel test (EtOH): gel
Gel test (H2O/PG mixtures): gel
Gel test (H2O/t-BuOH (TBA/H2O) mixtures): gel
Gel test (MeCN): gel
Gel test [1]: gel
Gelation of emulsion (hydrogel 2 mg/ml + olive oil 200 μL, vortexed five seconds): gelated emulsion
Gel test (olive oil): weak gel
Gel test (propylene glycol (PG)): gel
Gel test (t-BuOH): gel

Structure (SMILES): C[C@H](NC(=O)[C@@H]1C[C@H](C(=O)O)C[C@H](C(=O)O)C1)C(=O)Nc1ccc2ccccc2c1 [Compound 13, CHex(AmAlaAmβNA)(COOH)2]
Gel test (H2O, concentration not given): gel

Structure (SMILES): O=C(NCCOCCO)[C@@H]1C[C@H](C(=O)NCCOCCO)C[C@H](C(=O)N[C@@H](Cc2ccccc2)C(=O)Nc2ccc([N+](=O)[O-])cc2)C1 [Compound 14, CHex(AmPheAmPhNO2)(AmEtOEtOH)2]
Gel test (H2O, concentration not given): yellow, weak gel
Stability upon heating in water (heating in water, yellow color (p-NA) observed): hydrolysis of the PheAmPhNO2 amide takes place

Structure (SMILES): O=C(N[C@@H](Cc1ccccc1)C(=O)NC1CCCCC1)[C@H]1C[C@@H](C(=O)OCc2ccccc2)C[C@@H](C(=O)OCc2ccccc2)C1 [Compound 16, CHex(OBn)2(AmPheAmCHex)]
Gel test (EtOH): gel
Gel test (MeCN): gel
Gel test [1]: gel
Gel test (olive oil): gel

Structure (SMILES): O=C(NCCOCCO)[C@@H]1C[C@H](C(=O)NCCOCCO)C[C@H](C(=O)N[C@@H](Cc2ccccc2)C(=O)NC2CCCCC2)C1 [Compound 18, CHex(AmPheAmCHex)(AmEtOEtOH)2]
Gel test (2 mg/mL in H2O): clear gel
Gel test (20 mg/mL in DMSO): turbid gel

Structure (SMILES): CCCCCCCCCCNC(=O)[C@H](Cc1ccccc1)NC(=O)[C@@H]1C[C@H](C(=O)O)C[C@H](C(=O)O)C1 [Compound 19, CHex(AmPheAmDecyl)(COOH)2]
Gel test (H2O, concentration not given): clear gel
Gel test (toluene): gel

Structure (SMILES): CCCCCCCCCCNC(=O)[C@H](Cc1ccccc1)NC(=O)[C@@H]1C[C@H](C(=O)NCCOCCO)C[C@H](C(=O)NCCOCCO)C1 [Compound 20, CHex(AmPheAmDecyl)(AmEtOEtOH)2]
Gel test (EtOH): gel
Gel test (H2O, concentration not given): gel
Gel test [1]: gel
Gel test (toluene): gel

Structure (SMILES): COC(=O)[C@H](Cc1ccccc1)NC(=O)[C@H](Cc1ccccc1)NC(=O)[C@@H]1C[C@H](C(=O)O)C[C@H](C(=O)O)C1 [Compound 22, CHex(AmPheAmPheOMe)(COOH)2]
Gel test (toluene): gel

Structure (SMILES): O=C(O)[C@@H]1C[C@H](C(=O)O)C[C@H](C(=O)N[C@@H](Cc2ccccc2)C(=O)N[C@@H](Cc2ccccc2)C(=O)O)C1 [Compound 23, CHex(AmPheAmPheOH)(COOH)2]
Aqueous gel formation by acidification (compound 22 heated in 1N NaOH (aq), cooled to RT, 2N HCl (aq) added): gel

Structure (SMILES): O=C(NCCOCCO)[C@@H]1C[C@H](C(=O)NCCOCCO)C[C@H](C(=O)N[C@@H](Cc2ccc(O)cc2)C(=O)Nc2ccc3ccccc3c2)C1 [Compound 24, CHex(AmTyrAmβNA)(AmEtOEtOH)2]
Gel test (1 mg/mL in H2O): clear gel
Gel test (EtOH): gel
Gel test (MeCN): gel
Gel test (olive oil): gelly precipitate

Structure (SMILES): O=C(CNC(=O)[C@H](Cc1ccccc1)NC(=O)[C@@H]1C[C@H](C(=O)O)C[C@H](C(=O)O)C1)Nc1ccc2ccccc2c1 [Compound 27, CHex(AmPheAmGlyAmβNA)(COOH)2]
Gel test (H2O, concentration not given): gel

Structure (SMILES): COC(=O)[C@H](Cc1ccccc1)NC(=O)[C@@H]1C[C@H](C(=O)O)C[C@H](C(=O)N[C@@H](Cc2ccccc2)C(=O)OC)C1 [Compound 30, CHex(AmPhe-OMe)2(COOH)]
Gel test (3 mg/mL in H2O): clear gel
Gel test (EtOH/H2O mixtures): gel
Gel test (PEG 400/H2O mixtures): gel
Gel test (olive oil): gel
Gel test (toluene): gel

Structure (SMILES): CCCC[C@H](NC(=O)[C@@H]1C[C@H](C(=O)O)C[C@H](C(=O)N[C@@H](CCCC)C(=O)OC)C1)C(=O)OC [Compound 31, CHex(AmNleOMe)2(COOH)]
Gel test (EtOH): gel
Gel test [1]: gel

Structure (SMILES): CCCC[C@H](NC(=O)[C@@H]1C[C@H](C(=O)O)C[C@H](C(=O)N[C@@H](CCCC)C(=O)O)C1)C(=O)O [Compound 32, CHex(AmNleOH)2(COOH)]
Gel test (H2O, concentration not given): gel

Structure (SMILES): O=C(N[C@@H](CO)C(=O)Nc1ccc2ccccc2c1)[C@@H]1C[C@H](C(=O)N[C@@H](CO)C(=O)Nc2ccc3ccccc3c2)C[C@H](C(=O)OCc2ccccc2)C1 [Compound 35, CHex(AmSerAmβNA)2(COOBn)]
Gel test (DMSO/CH2Cl2 mixtures): gel
Gel test (DMSO/EtOH mixtures): gel
Gel test (DMSO/MeCN mixtures): gel
Gel test (DMSO/MeOH mixtures): gel
Gel test (DMSO/toluene mixtures): gel
Gel test (EtOH): gel
Gel test (MeCN): gel

Structure (SMILES): O=C(O)[C@H]1C[C@@H](C(=O)N[C@@H](CO)C(=O)Nc2ccc3ccccc3c2)C[C@@H](C(=O)N[C@@H](CO)C(=O)Nc2ccc3ccccc3c2)C1 [Compound 36, CHex(AmSerAmβNA)2(COOH)]
Gel test (DMSO/CH2Cl2 mixtures): gel
Gel test (DMSO/EtOH mixtures): gel
Gel test (DMSO/H2O mixtures): gel
Gel test (DMSO/MeCN mixtures): gel
Gel test (DMSO/toluene mixtures): gel
Gel test (H2O, concentration not given): gel
Gel test (H2O/t-BuOH (TBA/H2O) mixtures): gel
Gel test (MeCN): weak gel

Results, then the compound that gave them:

Gel test (3 mg/mL in H2O): slightly crystalline gel
Structure (SMILES): O=C(O)[C@@H]1C[C@H](C(=O)O)C[C@H](C(=O)N[C@@H](Cc2ccccc2)C(=O)Nc2ccc3ccccc3c2)C1 [Compound 1, CHex(AmPhe-AmβNA)(COOH)2]

Gel test (3 mg/mL in H2O): slightly crystalline gel
Structure (SMILES): CSCC[C@H](NC(=O)[C@@H]1C[C@H](C(=O)O)C[C@H](C(=O)O)C1)C(=O)Nc1ccc2ccccc2c1 [Compound 3, CHex(AmMet-AmβNA)(COOH)2]

Gel test (1 mg/mL in H2O): clear gel
Gel test (3 mg/mL in MeOH): clear gel
Structure (SMILES): CSCC[C@H](NC(=O)[C@@H]1C[C@H](C(=O)NCCOCCO)C[C@H](C(=O)NCCOCCO)C1)C(=O)Nc1ccc2ccccc2c1 [Compound 4, CHex(AmMet-AmβNA)(AmEtOEtOH)2]

Gel test (3 mg/mL in H2O): clear gel
Structure (SMILES): COc1ccc(NC(=O)[C@H](Cc2ccccc2)NC(=O)[C@@H]2C[C@H](C(=O)O)C[C@H](C(=O)O)C2)cc1 [Compound 9, CHex(AmPhe-AmPh-OMe)(COOH)2]

Gel test (3 mg/mL in H2O): clear gel
Structure (SMILES): COc1ccc(NC(=O)[C@H](Cc2ccccc2)NC(=O)[C@@H]2C[C@H](C(=O)NCCOCCO)C[C@H](C(=O)NCCOCCO)C2)cc1 [Compound 10, CHex(AmPhe-AmPh-OMe)(AmEtOEtOH)2]

Gel test (H2O, concentration not given): gel
Gel test (toluene): gel
Structure (SMILES): CCCCCC(C)NC(=O)[C@H](Cc1ccccc1)NC(=O)[C@@H]1C[C@H](C(=O)O)C[C@H](C(=O)O)C1 (stereo partly shown) [Compound 21, CHex(AmPheAm2-Heptyl)(COOH)2]

Gel test (H2O, concentration not given): gel
Gel test (toluene): gel
Structure (SMILES): O=C(O)[C@@H]1C[C@H](C(=O)O)C[C@H](C(=O)N[C@@H](Cc2ccccc2)C(=O)NCCc2ccccc2)C1 [Compound 25, CHex(AmPheAmEtPh)(COOH)2]

Gel test (H2O, concentration not given): gel (thixotropic)
Gel test (H2O/PG mixtures): gel
Gel test (H2O/t-BuOH (TBA/H2O) mixtures): gel
Gel test (propylene glycol (PG)): gel
Gel test (t-BuOH): gel
Structure (SMILES): O=C(NCCOCCO)[C@@H]1C[C@H](C(=O)NCCOCCO)C[C@H](C(=O)N[C@@H](Cc2ccccc2)C(=O)NCCc2ccccc2)C1 [Compound 26, CHex(AmPheAmEtPh)(AmEtOEtOH)2]

Gel test (EtOH): gel
Gel test (MeOH): gel
Gel test (olive oil): gel
Gel test (toluene): gel
Structure (SMILES): COC(=O)[C@H](Cc1ccccc1)NC(=O)[C@@H]1C[C@H](C(=O)N[C@@H](Cc2ccccc2)C(=O)OC)C[C@H](C(=O)OCc2ccccc2)C1 [Compound 29, CHex(AmPhe-OMe)2(OBn)]

Gel test (DMSO): turbid gel
Structure (SMILES): CNC(=O)[C@H](Cc1ccccc1)NC(=O)[C@@H]1C[C@H](C(=O)N[C@@H](Cc2ccccc2)C(=O)NC)C[C@H](C(=O)OCc2ccccc2)C1 [Compound 33, CHex(AmPheAmMe)2(COOBn)]

Gel test (H2O, concentration not given): gel
Gel test (H2O/t-BuOH (TBA/H2O) mixtures): gel
Structure (SMILES): O=C(O)[C@H]1C[C@@H](C(=O)N[C@@H](Cc2ccccc2)C(=O)Nc2ccc3ccccc3c2)C[C@@H](C(=O)N[C@@H](Cc2ccccc2)C(=O)Nc2ccc3ccccc3c2)C1 [Compound 34, CHex(AmPheAmβNA)2(COOH)]

Gel test (DMSO/H2O mixtures): gel
Gel test (H2O/MeOH mixtures): gel
Gel test (H2O/iPrOH mixtures): gel
Gel test (H2O/t-BuOH (TBA/H2O) mixtures): gel
Structure (SMILES): CC(C)C[C@H](NC(=O)[C@@H]1C[C@H](C(=O)O)C[C@H](C(=O)N[C@@H](CC(C)C)C(=O)Nc2ccc3ccccc3c2)C1)C(=O)Nc1ccc2ccccc2c1 [Compound 37, CHex(AmLeuAmβNA)2(COOH)]
